From patent US20050187190A1, “Autoinducer-2 compounds as immunomodulatory agents” (priority 2004, published 2005) come the findings set out here.

Test [1] deals with IL-6 production in J774 macrophages. The test is described as follows: IL-6 production by stimulated J774 macrophages, ELISA of culture supernatants. The format is cell-based, mouse. The following applies: for release of IL-6: absence of exogenously-supplied immunostimulatory factors; for production of IL-6: regardless of stimulus: viral ribopolymers, LPS or lipoteichoic acid; for effect on IL-6 production: LPS-treated macrophages. The protocol:
(§1) J774.1 macrophages were cultured in RPMI 1640 medium containing 15% fetal calf serum in a humidified 37° C. incubator supplied with 5% CO2. Cells were plated at 50% confluency in 96 well format and allowed to attach overnight. For immunostimulation experiments, cells were incubated overnight in 100 μl of the above medium containing sub-maximal stimulatory levels of inducers: 0.1 μg/mL Salmonella lipopolysaccharide (Sigma), 1 μg/mL lipoteichoic acid (Sigma) or sterile, cell-free bacterially conditioned medium at a final concentration of 10^7 cell equivalents/mL. Following incubation, the medium was removed, centrifuged, and stored at −20° C. for subsequent assay for the presence of released cytokines. Preparation of bacterially conditioned medium Pseudomonas aeruginosa strain PAO1 and Lux^+ or Lux^− strains of Salmonella typhimurium 14028 were cultured in Luria Broth overnight. The optical density of the cultures was measured at 600 nm and cell densities calculated through use of a MacFarland's standard. Bacterial cultures were centrifuged and supernatants were filtered through a 0.2 micron sterile filter to remove all bacteria.
(§2) Centrifuged macrophage culture supernatants were assayed for the presence of secreted IL-1 and IL-6 through use of an ELISA kit according to the manufacturer's directions (R&D Systems, Minneapolis, Minn.). Briefly, 10 μl of culture supernatants were bound to test wells precoated with either anti-IL-1 or anti-IL-6 immunoglobulin. Bound cytokine was detected through use of a secondary cytokine-specific antibody tagged with horseradish peroxidase. Assay samples were developed through use of stabilized tetramethylbenzidine and hydrogen peroxide. Cytokine level, directly proportional to the colorimetric signal, was quantitated by measuring sample absorbance at 450 nm.
A general note: An ELISA detects its analyte on a solid surface through an enzyme-linked reagent.

The test system of test [2] is IL-1 production in J774 macrophages. The test is described as follows: IL-1 production by stimulated J774 macrophages, ELISA of culture supernatants. Conditions: for release of IL-1: absence of exogenously-supplied immunostimulatory factors; for effect on IL-1 production: LPS-treated macrophages. The format is cell-based, mouse. Here is the method:
as §1, §2

The next test addresses T1, recombinant COX-2 (Homo sapiens, UniProt P35354).
T1 sequence (P35354 18-604): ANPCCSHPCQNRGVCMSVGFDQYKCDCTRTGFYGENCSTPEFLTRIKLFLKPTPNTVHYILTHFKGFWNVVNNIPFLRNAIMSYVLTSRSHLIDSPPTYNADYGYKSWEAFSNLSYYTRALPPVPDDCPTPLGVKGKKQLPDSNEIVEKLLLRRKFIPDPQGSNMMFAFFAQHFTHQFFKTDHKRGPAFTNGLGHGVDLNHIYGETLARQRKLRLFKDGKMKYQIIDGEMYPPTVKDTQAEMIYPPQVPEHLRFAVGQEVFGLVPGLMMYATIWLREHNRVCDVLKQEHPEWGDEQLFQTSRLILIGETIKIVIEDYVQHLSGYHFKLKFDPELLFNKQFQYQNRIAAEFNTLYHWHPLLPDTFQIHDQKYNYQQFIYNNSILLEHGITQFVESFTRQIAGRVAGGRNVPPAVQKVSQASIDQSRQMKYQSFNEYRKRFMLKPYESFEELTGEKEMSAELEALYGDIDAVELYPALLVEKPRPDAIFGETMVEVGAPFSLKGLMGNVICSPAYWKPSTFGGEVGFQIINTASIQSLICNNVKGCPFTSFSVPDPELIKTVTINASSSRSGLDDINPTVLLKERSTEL
The test is described as follows: Inhibition of recombinant COX-2 prostaglandin synthesis, ELISA for PGE2. The format is biochemical. Here is the method:
“Max Inhibition” and “Aspirin/1000 uM” are positive inhibition controls. “Analog/500 uM,” represents the inhibition of prostaglandin synthesis by 500 μM MHF; “AI-2/40 uM” and “AI-2/80 uM” represents the inhibition of prostaglandin synthesis by 40 and 80 μM, respectively of AI-2. “Ribose/500 um” the inhibition of prostaglandin synthesis by 500 μM ribose. Prostaglandin synthesis was indirectly quantitated using an ELISA for PGE2 production.
Extracellular bacterial signals trigger expression of cyclooxygenase-2 (cox-2), which amplifies the cellular IL-6 response by catalyzing production of prostaglandin PGE2.
Aspirin, a non-specific inhibitor of COX-2 served as an inhibition control; prostaglandin synthesis was indirectly quantitated in an ELISA assay.

Test [3] deals with nitric oxide production (iNOS activity) in J774 macrophages. The test is described as follows: Nitric oxide (nitrite) production by LPS-stimulated J774 macrophages. In kind it is cell-based, mouse. The protocol:
FIG. 10 is a bar graph showing that AI-2 treatment suppresses nitric oxide production by LPS-stimulated J774 macrophages. “LPS+34,” “LPS+AI-2(5 ul)” and LPS+AI-2(2 ul) represents inhibition by concurrent treatment with LPS and MHF or the indicated amounts of AI-2. “LPS+ribose” is a control to show the amount of nitric oxide production in the absence of an inhibitor.

In the next test the test system is MM32. As to the kind of experiment: MM32 light production assay (quorum sensing activity). The format is cell-based, Vibrio harveyi. The source says:
Such agonists and analogs can be readily recognized by their action on the quorum-sensing system of bacteria such as mutant strains of Vibrio harveyi that respond to AI-2 but cannot produce it themselves. For example, AI-2 analogs and agonists can be identified by known techniques, including but not limited to, large-scale screening of compounds through use of the V. harveyi bioassay described in U.S. Pat. No. 6,780,890 and other techniques described therein. Reduction in signaling activity in the presence of a test compound indicates the ability of that compound to, for example, block bacterial pathogenesis by affecting the expression of one or more virulence factors.

Setting [4] is: LPS 0.1 μg/mL, concurrent AI-2 40 μM.
The mark [5] stands for this setting: LPS-stimulated macrophages, increasing amounts of enzymatically-prepared AI-2.

The structures appear in SMILES notation. pIC50: −log10 of the molar value.

As a reminder, the pIC50 is the negative decadic logarithm of the IC50, by convention in mol/L. For the compound `CC(=O)C(=O)[C@@H](O)CO` [AI-2], the “reduction of overall concentration of IL-6” value in test [1] (setting [4]) is on record as “approximately 50%”. Further, the “IL-6 production, dose dependence” value in test [1] (setting [5]) is listed as “increasing suppression”. Also, in test [1], the “release of IL-6” value was “neither AI-2 nor its biosynthesis co-products, adenine and homocysteine, cause macrophages to release IL-1 or IL-6”; the “production of IL-6” value is recorded as “decrease production of IL-6”. In addition, in test [1] (macrophages stimulated with LPS (0.1 μg/ml), 5 μl of the AI-2 reaction product), the “reduction in IL-6 levels” value is approximately 50%. Also, in test [1] (read-out: IC50, inhibition of IL-6 production in macrophages), the pIC50 was 4.40. For the same compound, in test [2] (setting [4]), the “reduction of overall concentration of IL-1” value is recorded as “approximately 50%”. For the same compound, the “IL-1 production, dose dependence” value in test [2] (setting [5]) was “increasing suppression”. The “release of IL-1” value in test [2] is “neither AI-2 nor its biosynthesis co-products, adenine and homocysteine, cause macrophages to release IL-1 or IL-6”. In addition, the pIC50 at recombinant COX-2 (read-out: IC50, prostaglandin level produced by recombinant COX-2) was 4.40. Besides, the “nitrite (breakdown product of nitric oxide) level” value in test [3] is given as “near baseline levels”.
For the compound `CC1=C(O)C(=O)CO1` [MHF, 5-methyl-4-hydroxy-3(2H)furanone], the IL-6 production entry in test [1] (LPS-stimulated J774 macrophages), in test [1] (lipoteichoic acid-stimulated J774 macrophages) and in test [1] (viral ribopolymer (polyCI)-stimulated J774 macrophages) was “suppression of IL-6 production” each time. Further, in test [1], the “production of IL-6” value is on record as “decrease production of IL-6”. In addition, the “reduction in IL-6 production” value in test [1] (stimulated J774 macrophages, 500 μM MHF) came out at 50%. For the same compound, in test [1] (stimulated J774 macrophages, little change at higher concentrations), the “concentration at which near maximal attenuation of IL-6 release occurs” value stood at 877 µM. Further, the “concentration at which detectable attenuation of IL-6 release occurs” value in test [1] (stimulated J774 macrophages, titration) turned out to be 105 µM. In addition, the quorum sensing activity result in the test on MM32 is “displays quorum sensing activity”. For the same compound, the quorum-sensing activity result with MM32 (500 μg/ml MHF) is “comparable to 2.5 μL enzymatically-synthesized AI-2”. For the same compound, the “inhibition of Cox-2 prostaglandin synthetase activity” value on recombinant COX-2 (500 μM MHF) was “inhibition of Cox-2 prostaglandin synthetase activity”. The “nitrite (breakdown product of nitric oxide) level” value in test [3] was “near baseline levels”.
With `Nc1ncnc2nc[nH]c12` [adenine, reference compound], the “release of IL-6” value in test [1] is “neither AI-2 nor its biosynthesis co-products, adenine and homocysteine, cause macrophages to release IL-1 or IL-6”. Also, in test [2], the “release of IL-1” value is “neither AI-2 nor its biosynthesis co-products, adenine and homocysteine, cause macrophages to release IL-1 or IL-6”.
Turning to `O=C1O[C@H]([C@@H](O)CO)C(O)=C1O` [ascorbic acid, reference compound], the “effect on IL-6 production” value in test [1] is given as “affect neither IL-1 nor IL-6 production”. Moreover, the “effect on IL-1 production” value in test [2] is recorded as “affect neither IL-1 nor IL-6 production”.
Regarding `N[C@@H](CCS)C(=O)O` [homocysteine, reference compound], the “release of IL-6” value in test [1] is “neither AI-2 nor its biosynthesis co-products, adenine and homocysteine, cause macrophages to release IL-1 or IL-6”. The “release of IL-1” value in test [2] was “neither AI-2 nor its biosynthesis co-products, adenine and homocysteine, cause macrophages to release IL-1 or IL-6”.
For `O=C[C@H](O)[C@H](O)[C@H](O)CO` [ribose, reference compound], in test [1], the “effect on IL-6 production” value is “affect neither IL-1 nor IL-6 production” and the “production of IL-6” value is on record as “effects no attenuation”. Also, the “effect on IL-1 production” value in test [2] is given as “affect neither IL-1 nor IL-6 production”. Further, the quorum-sensing activity result with MM32 (50 μM ribose) is “lacks quorum-sensing activity”. Further, the “inhibition of PGE2 production” value at recombinant COX-2 (500 μM ribose) was “inability of ribose (even at high concentrations, 500 μM) to inhibit PGE2 production”.
